The values that follow come from US11680297B2, “Activities of multiple cancer-related pathways are associated with BRAF mutation and predict the resistance to BRAF/MEK inhibitors in melanoma cells” (THE JOHNS HOPKINS UNIVERSITY, priority 2013, dated 2023).

Assay [1] concerns PLX4032-resistant melanoma cell lines. Particulars: two PLX4032-resistant melanoma cell lines; cited from earlier work.
The next assay deals with RPMI-7951 cells. In words: Cell proliferation (MTT) assay. As to conditions: Homo sapiens, RPMI-7951, 72 h treatment. Format: cell-based. As to the method: (§1) After 72 h treatments, cell culture was added with 10 μl of 5 mg/ml MTT agent (3-(4,5-Dimethylthiazol-2-yl)-2,5-diphenyltetrazolium bromide, Sigma St. Louis, Mo.) and incubated for 4 h, followed by addition of 100 μl of 10% SDS solution and a further incubation overnight. The plates were then read on a microplate reader using the test wavelength of 570 nm and the reference wavelength of 670 nm. Five duplicates were done to determine each data point. GI50 was calculated as previously reported (21).

For another assay, the system named is SK-MEL-24 cells. Kind of assay: Cell proliferation (MTT) assay. In kind it is cell-based. As to conditions: Homo sapiens, SK-MEL-24, 72 h treatment. As for the experimental part:
as §1

As for `CS(=O)(=O)CCNCc1ccc(-c2ccc3ncnc(Nc4ccc(OCc5cccc(F)c5)c(Cl)c4)c3c2)o1` [Lapatinib], the “effect in combination with PLX4032” value in assay [1] was “apparently synergistic effects”.

The term GI50 denotes the concentration at which growth is held to half of that of the control. For `Cn1cnc2c(F)c(Nc3ccc(Br)cc3Cl)c(C(=O)NOCCO)cc21` [AZD6244, selumetinib], the GI50 in the assay with RPMI-7951 cells and in the assay with SK-MEL-24 cells was > 1000 nM in each case.
